# Source: patent US5266328A, “Laminin a chain polypeptides from the carboxy terminal globular domain” (Regents of the University of Minnesota, priority 1990, dated 1993)
# How the values were obtained:
# [1] = tested on: human colon carcinoma KM12 SM (high metastatic) cell line; test: Direct cell adhesion to peptide-coated surfaces; type: cell-based; details: surface coated with 1 μg
# Source text: (§1) The murine melanoma K-1735-C10 (low metastatic) and K-1735-M4 (high metastatic) cell lines, murine UV-2237-MM fibrosarcoma cell line, human renal carcinoma SN12 C (low metastatic) and SN12 PM-6 (high metastatic) cell lines, and human colon carcinoma KM12 C (low metastatic) and KM12 SM (high metastatic) cell lines were originally provided by Dr. I. J. Fidler (M.D., Anderson Hospital, University of Texas Health Sciences Center, Houston, Tex.). The human fibrosarcoma HT-1080 cell line was obtained from the ATCC. The MM fibrosarcoma cell line was maintained in DME (GIBCO Laboratories, Grand Island, N.Y.) containing 10% FBS, the murine melanomas were maintained in DMEM containing 10% calf serum, the human fibrosarcoma cells were maintained in EMEM containing 10% heat inactivated FBS, and the human renal and colon carcinoma cells were grown in EME containing 10% FBS, vitamins, and 1 mM sodium pyruvate. Cells were passaged for 4 to 5 weeks and then replaced from frozen stocks of early passage cells to minimize phenotypic drift. Cells were maintained at 37° C. in a humidified incubator containing 5% CO2.
# (§2) The direct adhesion of cells to protein or peptide coated surfaces was performed as described in Skubitz et al., Exp. Cell Res., 173, 349-360 (1987) and Charonis et al., supra (1988). Briefly, radiolabeled cells were added to 96-well microtiter plates coated with various concentrations of synthetic peptides, laminin, or BSA (0.02 μg/well-50 μg/well from 50 μl solutions) for various lengths of time. After the incubation period, loosely or nonadherent cells were removed by washing the wells three times. Adherent cells were solubilized and quantitated in a scintillation counter. More specifically, cultures of cells which were 60-80% confluent were metabolically labeled for 24 hours with the addition of 3 μCi/ml of ^3 H-td (tritiated thymidine). On the day of the assay, the cells were harvested by trypsinization, the trypsin was inhibited by the addition of serum, and the cells were washed free of this mixture and resuspended in DMEM buffered with HEPES at pH 7.2. The adhesion medium also contained 2 mg/ml BSA. The cells were adjusted to a concentration of 3-4×10^4 /ml, and 100 μl of this cell suspension was added to the wells. The assay mixture was then incubated at 37° C. for 120 minutes. At the end of the incubation, the wells were washed with warm DMEM/Hepes containing 2 mg/ml BSA, and the adherent population was solubilized with 0.5N NaOH contained 1% SDS. The solubilized cells were then quantitated using a liquid scintillation counter.
# (§3) Instead of attempting to characterize the cell binding activity of all 14 of the synthetic peptides, a number of peptides from each of the three heparin binding categories of peptides were evaluated. Microtiter wells were adsorbed with the peptides, laminin, or BSA and a variety of tumor cell lines were tested for the ability to adhere to the ligands. The eight different cell lines selected for this study were of murine or human origin and, in most cases, of either high or low metastatic capacity. […] Many of the peptides that were very good at binding heparin and cells were also capable of inhibiting the adhesion of various cells to surfaces coated with laminin (see below).
# [2] = tested on: human colon carcinoma KM12 C (low metastatic) cell line; test: Direct cell adhesion to peptide-coated surfaces; type: cell-based; details: surface coated with 1 μg
# Source text: as §1, §2, §3
# [3] = tested on: human renal carcinoma SN12 PM-6 (high metastatic) cell line; test: Direct cell adhesion to peptide-coated surfaces; type: cell-based; details: surface coated with 1 μg; human renal (SN12 PM6)
# Source text: as §1, §2, §3
# [4] = tested on: murine melanoma K-1735-M4 (high metastatic) cell line; test: Direct cell adhesion to peptide-coated surfaces; type: cell-based; details: surface coated with 1 μg
# Source text: as §1, §2, §3
# [5] = tested on: murine melanoma K-1735-C10 (low metastatic) cell line; test: Direct cell adhesion to peptide-coated surfaces; type: cell-based; details: surface coated with 1 μg
# Source text: as §1, §2, §3
# [6] = tested on: human renal carcinoma SN12 C (low metastatic) cell line; test: Direct cell adhesion to peptide-coated surfaces; type: cell-based; details: surface coated with 1 μg; human renal (SN12C)
# Source text: as §1, §2, §3
# [7] = tested on: murine UV-2237-MM fibrosarcoma cell line; test: Direct cell adhesion to peptide-coated surfaces; type: cell-based; details: surface coated with 1 μg
# Source text: as §1, §2, §3
# [8] = tested on: murine melanoma (C10) cells; test: Inhibition of cell adhesion to laminin-coated surfaces; type: cell-based; details: soluble peptide 10 μg/ml, surface coated with 1.5 μg of laminin
# Source text: as §1
# (§4) Inhibition of cell adhesion with synthetic peptides was performed using assays similar to those described by Skubitz et al., supra (1987). Briefly, radiolabeled cells at 5×10^4 /ml were incubated for 30 minutes with various concentrations of synthetic peptides (1.0 μg/ml-200 μg/ml) in DME/Hepes containing 2 mg/ml BSA. One hundred microliters of the cell suspension was then added to wells precoated with 1.5 μg of laminin, 1.0 μg of type IV collagen, or 1.0 μg of fibronectin. The cells were incubated for 30 minutes at 37° C., then the wells were washed and adherent cells were quantitated as previously described [Skubitz et al., supra (1987)]. Cell viability after a one hour incubation in the presence of the "inhibitors" was assessed by trypan blue dye exclusion.
# [9] = tested on: human fibrosarcoma (HT1080) cells; test: as above; type: cell-based; details: soluble peptide 20 μg/ml, surface coated with 1.5 μg of laminin
# Source text: as §1, §4
# [10] = tested on: human renal (SN12 PM6) cells; test: as above; type: cell-based; details: soluble peptide 10 μg/ml, surface coated with 1.5 μg of laminin
# Source text: as §1, §4
# [11] = tested on: murine melanoma (M4) cells; test: as above; type: cell-based; details: soluble peptide 10 μg/ml, surface coated with 1.5 μg of laminin
# Source text: as §1, §4
# [12] = tested on: human colon (KM12 C) cells; test: as above; type: cell-based; details: soluble peptide 10 μg/ml, surface coated with 1.5 μg of laminin
# Source text: as §1, §4
# [13] = tested on: human renal (SN12C) cells; test: as above; type: cell-based; details: soluble peptide 10 μg/ml, surface coated with 1.5 μg of laminin
# Source text: as §1, §4
# [14] = tested on: murine fibrosarcoma (MM) cells; test: as above; type: cell-based; details: soluble peptide 10 μg/ml, surface coated with 1.5 μg of laminin
# Source text: as §1, §4
# [15] = tested on: human renal (SN12 PM6) cells; test: Cell spreading assay; type: cell-based; details: wells coated at 100 μg/ml, 2 1/2 hour incubation
# Procedure: (§5) Spreading of the adherent cells was evaluated by performing adhesion assays similar to those described above. Twenty-four well tissue culture plates (Becton Dickinson and Co., Lincoln Park, N.J.) were coated with 300 μl of laminin, synthetic peptides, or BSA at 100 μg/ml, then blocked with 2 mg/ml BSA in PBS. Three hundred microliters of a cell suspension at 5×10^4 cells/ml was added to each well, and after a 21/2 hour incubation, nonadherent cells were aspirated out of the wells. Adherent cells were fixed with 2% glutaraldehyde in PBS at 23° C. for one hour. The glutaraldehyde was then removed and the cells were stained by two different techniques. For photographic purposes, the cells were stained with Diff-Quik Solution I (American Scientific Products, McGaw Park, Ill.) for 10 minutes at 23° C. Solution I was removed, then Diff-Quik Solution II was added and the cells were stained for another 10 minutes at 23° C. Wells were washed with PBS, then representative cells were photographed with a Nikon DIAPHOT inverted phase microscope using Panatomic X Film ASA32 (Eastman Kodak, Rochester, N.Y.). Adherent cells to be quantitated for spreading were stained overnight at 23° C. with 500 μl of a solution containing 0.12% (w/v) Coomassie Brilliant Blue R (Sigma Chemical Co.), 5% (v/v) acetic acid, and 50% (v/v) ethanol. Wells were washed three times with 500 μl of PBS and cell spreading was then quantitated by measuring the average surface area occupied by a cell using an Opti-Max Image Analyzer. Thirty cells were measured per well; each experiment was done in quadruplicate and repeated three times. In all cases, the cells spread on the peptides to occupy an area about 60% of that seen on laminin-coated surfaces.
# [16] = tested on: human renal (SN12C) cells; test: Cell spreading assay; type: cell-based; details: wells coated at 100 μg/ml, 2 1/2 hour incubation
# Procedure: as §5
# [17] = tested on: murine fibrosarcoma (MM) cells; test: Cell spreading assay; type: cell-based; details: wells coated at 100 μg/ml, 2 1/2 hour incubation
# Procedure: as §5
# [18] = tested on: HT-1080 human fibrosarcoma cells; test: Cell spreading assay; type: cell-based
# Procedure: as §5
# [19] = tested on: human fibrosarcoma HT-1080 cell line; test: Direct cell adhesion to peptide-coated surfaces; type: cell-based; details: surface coated with 1 μg; human fibrosarcoma (HT1080)
# Source text: (§6) The murine melanoma K-1735-C10 (low metastatic) and K-1735-M4 (high metastatic) cell lines, murine UV-2237-MM fibrosarcoma cell line, human renal carcinoma SN12 C (low metastatic) and SN12 PM-6 (high metastatic) cell lines, and human colon carcinoma KM12 C (low metastatic) and KM12 SM (high metastatic) cell lines were originally provided by Dr. I. J. Fidler (M.D., Anderson Hospital, University of Texas Health Sciences Center, Houston, Tex.). The human fibrosarcoma HT-1080 cell line was obtained from the ATCC. […]
# (§7) The direct adhesion of cells to protein or peptide coated surfaces was performed as described in Skubitz et al., Exp. Cell Res., 173, 349-360 (1987) and Charonis et al., supra (1988). […] Adherent cells were solubilized and quantitated in a scintillation counter. […] The solubilized cells were then quantitated using a liquid scintillation counter.
# (§8) Instead of attempting to characterize the cell binding activity of all 14 of the synthetic peptides, a number of peptides from each of the three heparin binding categories of peptides were evaluated. […]
# Radiolabeled HT-1080 human fibrosarcoma cells were incubated in the wells for 30 minutes and the adhesion of cells was quantitated.
# [20] = tested on: eight different cell lines of murine or human origin; test: Direct cell adhesion, summary over eight tumor cell lines; type: cell-based; details: summary of Table IV over eight cell lines
# Source text: as §6, §7, §8
# [21] = Solid-phase binding of 3H-heparin to peptides adsorbed to plastic plates (RLBA)
# Procedure: The binding of ^3 H-heparin to laminin A chain peptides was measured in a direct solid phase binding assay as described below, whereby various amounts of the peptides were adsorbed to plates and ^3 H-heparin was added to each well. More specifically, the binding of ^3 H-heparin (0.3 mCi/mg; Du Pont - New England Nuclear Research Products, Wilmington, Del.) to laminin, synthetic peptides, and bovine serum albumin (BSA) (fatty acid free, fraction V, ICN Immunobiologicals) was quantititated by a solid-phase RLBA in 96-well polystyrene Immulon 1 plates (Dynatech Laboratories, Inc., Alexandria, Va.) as described by Skubitz et al., supra (1988). Specifically, 50 microliters of the various proteins at various concentrations (0.2 μg/well-5.0 μg/well) in PBS containing 0.02% NaN3 was added to each well and dried overnight at 29° C. The next day, 200 μl of 2 mg/ml BSA in PBS was added to each well, followed by a 2 hour incubation at 37° C. After removal of this buffer, 50 μl of ^3 H-heparin (200,000 dpm) was added in RLBA buffer (20 mM Tris, pH 6.8 containing 50 mM NaCl and 2 mg/ml ovalbumin) and the wells were incubated at 37° C. for 2 hours. Unbound ^3 H-heparin was removed by washing three times with wash buffer (RLBA buffer containing 0.1% CHAPS). Tritiated heparin was solubilized by incubation with 200 μl of 0.05N NaOH and 1% SDS for 30 minutes at 60° C. and quantitated in a Beckman LS-3801 scintillation counter.
# The above experimental procedure was repeated to determine the percentage of ^3 H-heparin that would adhere to 2 μg/well of each polypeptide after a two-hour incubation in increasing concentrations of salt (NaCl).
sequence,measurement,setting,value
"KQNCLSSRASFRGCVRNLRLSR [Peptide R30, laminin A chain residues 3011-3032]",Percentage of Cells Adhered to Surface,[1],69%
same,Percentage of Cells Adhered to Surface,[2],48%
same,Percentage of Cells Adhered to Surface,[3],67%
same,Percentage of Cells Adhered to Surface,[4],25%
same,Percentage of Cells Adhered to Surface,[5],82%
same,Percentage of Cells Adhered to Surface,[6],84%
same,Percentage of Cells Adhered to Surface,[7],56%
same,Percentage Inhibition of Laminin-Mediated Cell Adhesion,[8],22%
same,Percentage Inhibition of Laminin-Mediated Cell Adhesion,[9],51%
same,Percentage Inhibition of Laminin-Mediated Cell Adhesion,[10],44%
same,Percentage Inhibition of Laminin-Mediated Cell Adhesion,[11],38%
same,Percentage Inhibition of Laminin-Mediated Cell Adhesion,[12],59%
same,Percentage Inhibition of Laminin-Mediated Cell Adhesion,[13],0%
same,Percentage Inhibition of Laminin-Mediated Cell Adhesion,[14],25%
same,Surface Area Occupied by a Cell,[15],311 ± 19 μm^2
same,Surface Area Occupied by a Cell,[16],292 ± 22 μm^2
same,Surface Area Occupied by a Cell,[17],291 ± 21 μm^2
same,"HT-1080 cell spreading, in words",[18]; ranking of Table VII,promoted the most cell spreading
same,Surface Area Occuppied by a Cell,"[18]; wells coated at 100 μg/ml, 2 1/2 hour incubation, HT-1080, Table VII",392 +/- 27 um2
same,Surface Area Occupied by a Cell,"[18]; wells coated at 100 μg/ml, 2 1/2 hour incubation, human fibrosarcoma (HT1080), Table VI",392 ± 27 μm^2
same,Percentage of Cells Adhered to Surface,[19],92%
same,"promotion of cell adhesion, in words",[20],capable of promoting the adhesion of all eight cell lines
same,Heparin Binding (bound ^3 H-heparin as percent of input),"[21]; One microgram peptide adsorbed, 200,000 dpm ^3 H-heparin, 20 mM Tris pH 6.8, 50 mM NaCl, 2 mg/ml ovalbumin",**** (>10% [****])
same,"Bound ^3 H-heparin as percent of input, 0.05M NaCl","[21]; Two micrograms peptide adsorbed, 0.02M Tris pH 6.8, 0.05M NaCl, 2 hr 37 C",**** (>10% (****))
same,"Bound ^3 H-heparin as percent of input, 0.15M NaCl","[21]; Two micrograms peptide adsorbed, 0.02M Tris pH 6.8, 0.15M NaCl, 2 hr 37 C",**** (>10% (****))
same,"Bound ^3 H-heparin as percent of input, 0.5M NaCl","[21]; Two micrograms peptide adsorbed, 0.02M Tris pH 6.8, 0.5M NaCl, 2 hr 37 C",*** (6.0-10.0% (***))
same,"Bound ^3 H-heparin as percent of input, 1.0M NaCl","[21]; Two micrograms peptide adsorbed, 0.02M Tris pH 6.8, 1.0M NaCl, 2 hr 37 C",* (2.0-3.9% (*))
same,Heparin binding activity group,[21]; grouping of the Table II results in words,very good heparin binding
